{"source": "patent US20210401895A1", "about": "“TREATMENT OF A DISEASE OF THE GASTROINTESTINAL TRACT WITH LIVE BIOTHERAPEUTICS” (Progenity, Inc., priority 2017, published 2021)", "origin": "cited, not measured here", "key": {"[1]": {"test_system": "malignant or hyperactive melanocytes"}, "[2]": {"test_system": "Propionibacterium acnes and Staphylococcus epidermidis", "details": "particularly Propionibacterium acnes and Staphylococcus epidermidis"}, "[3]": {"test_system": "dermatophytes, yeasts, moulds and other fungi", "details": "broad spectrum of dermatophytes"}}}
{"smiles": "O=C(O)CCCCCCCC(=O)O", "note": "[Azelaic acid]", "values": [{"measurement": "effect on malignant or hyperactive melanocytes", "setting": "[1]", "value": "cytotoxic effect"}, {"measurement": "effects on aerobic and anaerobic organisms", "setting": "[2]", "value": "antibacterial effects"}]}
{"smiles": "Cc1cc(C2CCCCC2)n(O)c(=O)c1", "note": "[Ciclopirox]", "values": [{"measurement": "activity against fungi", "setting": "[3]", "value": "fungicidal, fungistatic and sporicidal activity"}]}
